One data set in a line: Mouse plasma stability. It is filed as in vitro ADME, CD-1 mouse. The conditions noted are these: Table 2, 37° C., 1 μM lipid. Here is the method: Lipid stock solution was prepared by dissolution of the lipid in isopropanol at the concentration of 5 mg/mL. A requisite volume of the lipid-isopropanol solution was then diluted to 100 μM concentration at a total volume of 1.0 mL with in 50:50 (v/v) ethanol/water. Ten microliters of this 100 μM solution was spiked into 1.0 mL of mouse plasma (BioIVT, Cat. No.: MSE00PLNHUNN, CD-1 mouse, anticoagulant: sodium heparin, not filtered) that was pre-warmed to 37° C. and was stirred at 50 rpm with a magnetic stir bar. The starting concentration of lipids in plasma was thus 1 μM. At time points 0, 15, 30, 45, 60 and 120 min, 0.1 mL of the plasma was withdrawn from the reaction mixture and the protein was precipitated by adding 0.9 mL of ice-cold 4:1 (v/v) acetonitrile/methanol with 1 μg/mL of a selected internal standard lipid added. After filtration through a 0.45 micron 96-well filtering plate, the filtrates were analyzed by LC-MS (Thermo Fisher's Vanquish UHPLC-LTQ XL linear ion trap Mass Spectrometer); Waters XBridge BEH Shield RP18 2.5 micron (2.1×100 mm) column with its matching guard column. Mobile phase A was 0.1% formic acid in water, and mobile phase B was 0.1% formic acid in 1:1 (v/v) acetonitrile/methanol. Flow rate was 0.5 ml/min. Elution gradient was: Time 0-1 min: 10% B; 1-6 min: 10%-95% B; 6-8.5 min: 95% B; 8.5-9 min: 95%-10% B; 9-10 min: 10% B. Mass spectrometry was in positive scanning mode from 600-1100 m/z. The peak of the molecular ion of the lipids was integrated in the extracted ion chromatography (XIC) using Xcalibur software (Thermo Fisher). The relative peak area compared to T=0, after normalization by the peak area of the internal standard, was used as the percentage of the lipid remaining at each time point. T1/2 values were calculated using the first-order decay model.

Data set [1] in a line: In vivo biodegradability assay (lipid concentration in mouse liver by LC-MS). The settings on record: BLOQ: below level of quantification; for In vivo degradability (ng/tissue) at 48 h 0.1 mpk: Table 2, 0.1 mpk. The arrangement: species or system mice.
Procedure: In vivo biodegradability assay was performed to assess the biodegradability of lipids in the LNP. Briefly, mice were injected with either 0.1 or 0.03 mg/Kg dose and after 24 or 48 hours mice livers were collected. To measure the concentration of lipids in the mouse liver, liver samples were homogenized in appropriate buffer in 1-10 dilution and mixed with the same amount of stabilized plasma. The samples were then mixed with organic solvents spiked with internal standard to precipitate proteins. After centrifugation, supernatant was diluted further with organic solvent before sample analysis by LC-MS. In LC-MS analysis, positive electrospray ionization was used, and multiple reaction monitoring (MRM) parameters were set up to specifically target the lipid analyte and internal standard. Calibration standards were prepared in stabilized plasma and mixed with same amount of homogenization buffer before protein precipitation. Quality control samples with known amounts of lipid was prepared in blank liver homogenate to monitor the precision and accuracy of the assay.

SMILES strings stand for the structures.

Turning to `CCCCCC(C)(C)C(=O)OCC(COC(=O)C(C)(C)CCCCC)OC(=O)CCCN(CCCC(=O)OC(COC(=O)C(C)(C)CCCCC)COC(=O)C(C)(C)CCCCC)C(=O)SCCCN(C)C` [LIPID 19, ((4,4′-((((3-(Dimethylamino)propyl)thio)carbonyl)-azanediyl)bis(butanoyl))bis(oxy))bis(propane-2,1,3-triyl) tetrakis(2,2-dimethylheptanoate)], in the data set “Mouse plasma stability”, the “Plasma half life % remaining after 2 h” value came out at 100%. In addition, the “In vivo degradability (ng/tissue) at 48 h 0.03 mpk” value in data set [1] (Table 1, 0.03 mpk) is under 340 ng/tissue; in data set [1] (Table 2, 0.03 mpk), under 340 ng/tissue. For the same molecule, in data set [1] (Table 1, 0.1 mpk), the “In vivo degradability (ng tissue) at 48 h 0.1 mpk” value was 847 ng tissue. In data set [1], the “In vivo degradability (ng/tissue) at 48 h 0.1 mpk” value amounted to 847 ng/tissue.
Turning to `CC1CCC(CCC(=O)OCC(C)(COC(=O)CCC2CCC(C)CC2)COC(=O)CCN(CCC(=O)OCC(C)(COC(=O)CCC2CCC(C)CC2)COC(=O)CCC2CCC(C)CC2)C(=O)SCCCN(C)C)CC1` (centres unmarked) [LIPID 20], the “Plasma half life % remaining after 2 h” value in the data set “Mouse plasma stability” came to 100%. Also, the “In vivo degradability (ng/tissue) at 48 h 0.03 mpk” value in data set [1] (Table 2, 0.03 mpk) is listed as under 340 ng/tissue. The “In vivo degradability (ng/tissue) at 48 h 0.1 mpk” value in data set [1] is under 340 ng/tissue.
Consider `CC1CCC(CC(=O)OCC(C)(COC(=O)CCN(CCC(=O)OCC(C)(COC(=O)CC2CCC(C)CC2)COC(=O)CC2CCC(C)CC2)C(=O)SCCCN(C)C)COC(=O)CC2CCC(C)CC2)CC1` (centres unmarked) [LIPID 21], for which the “Plasma half life % remaining after 2 h” value in “Mouse plasma stability” is 100%. Further, the “In vivo degradability (ng/tissue) at 48 h 0.03 mpk” value in data set [1] (Table 2, 0.03 mpk) is under 340 ng/tissue. In data set [1], the “In vivo degradability (ng/tissue) at 48 h 0.1 mpk” value is listed as under 340 ng/tissue.
Consider `CCC1CCC(C(=O)OCC(C)(COC(=O)CCN(CCC(=O)OCC(C)(COC(=O)C2CCC(CC)CC2)COC(=O)C2CCC(CC)CC2)C(=O)SCCCN(C)C)COC(=O)C2CCC(CC)CC2)CC1` (centres unmarked) [LIPID 22, ((3,3′-((((3-(Dimethylamino)propyl)thio)carbonyl)azanediyl)bis(propanoyl))bis(oxy))bis(methylene)bis(2-methylpropane-2,1,3-triyl) tetrakis(2-(4-ethylcyclohexyl)acetate)], for which the “Plasma half life % remaining after 2 h” value in “Mouse plasma stability” is 100%. The “In vivo degradability (ng/tissue) at 48 h 0.03 mpk” value in data set [1] (Table 2, 0.03 mpk) is given as under 340 ng/tissue. The “In vivo degradability (ng/tissue) at 48 h 0.1 mpk” value in data set [1] was under 340 ng/tissue.
For the molecule `CCCCC(C)(C)CC(=O)OCC(C)(COC(=O)CCN(CCC(=O)OCC(C)(COC(=O)CC(C)(C)CCCC)COC(=O)CC(C)(C)CCCC)C(=O)SCCCN(C)C)COC(=O)CC(C)(C)CCCC` [LIPID 23], in “Mouse plasma stability”, the “Plasma half life % remaining after 2 h” value stood at 100%. Also, in data set [1] (Table 2, 0.03 mpk), the “In vivo degradability (ng/tissue) at 48 h 0.03 mpk” value is reported as under 340 ng/tissue. In addition, the “In vivo degradability (ng/tissue) at 48 h 0.1 mpk” value in data set [1] is under 340 ng/tissue.
In the case of `CCCCCCCC(=O)OCC(C)(COC(=O)CCCCCCC)COC(=O)CCN(CCC(=O)OCC(C)(COC(=O)CCCCCCC)COC(=O)CCCCCCC)C(=O)SCCCN(C)C` [LIPID 24], in “Mouse plasma stability”, the “Plasma half life % remaining after 2 h” value is recorded as 100%. In addition, the “In vivo degradability (ng/tissue) at 48 h 0.03 mpk” value in data set [1] (Table 2, 0.03 mpk) is “BLOQ”. For the same molecule, the “In vivo degradability (ng/tissue) at 48 h 0.1 mpk” value in data set [1] was “BLOQ”.
Turning to `CCCCCCCCC(=O)OCC(COC(=O)CCCCCCCC)COC(=O)CCCN(CCCC(=O)OCC(COC(=O)CCCCCCCC)COC(=O)CCCCCCCC)C(=O)SCCCN(C)C` [LIPID 25, ((4,4′-((((3-(Dimethylamino)propyl)thio)carbonyl)azanediyl)bis(butanoyl))bis(oxy))bis(methylene))bis(propane-2,1,3-triyl) tetranonanoate], in the data set “Mouse plasma stability”, the “Plasma half life % remaining after 2 h” value is given as 100%. The “In vivo degradability (ng/tissue) at 48 h 0.03 mpk” value in data set [1] (Table 2, 0.03 mpk) is “BLOQ”. In data set [1], the “In vivo degradability (ng/tissue) at 48 h 0.1 mpk” value is on record as “BLOQ”.
On to `CCCCCCCCC(=O)OCC(COC(=O)CCCCCCCC)COC(=O)CCN(CCC(=O)OCC(COC(=O)CCCCCCCC)COC(=O)CCCCCCCC)C(=O)SCCN(C)C` [LIPID 26, ((3,3′-((((2-(Dimethylamino)ethyl)thio)carbonyl)azanediyl)bis(propanoyl))bis(oxy))bis(methylene))bis(propane-2,1,3-triyl) tetranonanoate], for which the “Plasma half life % remaining after 2 h” value in “Mouse plasma stability” was determined as 100%. In addition, the “In vivo degradability (ng/tissue) at 48 h 0.03 mpk” value in data set [1] (Table 2, 0.03 mpk) was “BLOQ”. Moreover, in data set [1], the “In vivo degradability (ng/tissue) at 48 h 0.1 mpk” value is listed as “BLOQ”.

The values above are taken from patent publication US12723023B2, “Ionizable cationic lipids for RNA delivery” (Arcturus Therapeutics, Inc., priority 2021, dated 2026).
